In article PMC10070013, “Apigenin improves cytotoxicity of antiretroviral drugs against HTLV-1 infected cells through the modulation of AhR signaling” (Neuroimmune Pharmacology and Therapeutics, 2023):

Assays:
[1] = target: T1, aryl hydrocarbon receptor (AhR) (Homo sapiens, UniProt P35869); assay: Nano-ITC with recombinant protein; assay type: binding
T1 construct: Recombinant human AhR (LS-G13702-10)

[2] = target: T2, ATP binding cassette subfamily B member 1 (ABCB1/P-gp) (Homo sapiens, UniProt P08183); assay: Nano-ITC with recombinant protein (positive control protein)
T2 construct: Recombinant human ABCB1 (LS-G142372-20)
T2 sequence (P08183 whole entry): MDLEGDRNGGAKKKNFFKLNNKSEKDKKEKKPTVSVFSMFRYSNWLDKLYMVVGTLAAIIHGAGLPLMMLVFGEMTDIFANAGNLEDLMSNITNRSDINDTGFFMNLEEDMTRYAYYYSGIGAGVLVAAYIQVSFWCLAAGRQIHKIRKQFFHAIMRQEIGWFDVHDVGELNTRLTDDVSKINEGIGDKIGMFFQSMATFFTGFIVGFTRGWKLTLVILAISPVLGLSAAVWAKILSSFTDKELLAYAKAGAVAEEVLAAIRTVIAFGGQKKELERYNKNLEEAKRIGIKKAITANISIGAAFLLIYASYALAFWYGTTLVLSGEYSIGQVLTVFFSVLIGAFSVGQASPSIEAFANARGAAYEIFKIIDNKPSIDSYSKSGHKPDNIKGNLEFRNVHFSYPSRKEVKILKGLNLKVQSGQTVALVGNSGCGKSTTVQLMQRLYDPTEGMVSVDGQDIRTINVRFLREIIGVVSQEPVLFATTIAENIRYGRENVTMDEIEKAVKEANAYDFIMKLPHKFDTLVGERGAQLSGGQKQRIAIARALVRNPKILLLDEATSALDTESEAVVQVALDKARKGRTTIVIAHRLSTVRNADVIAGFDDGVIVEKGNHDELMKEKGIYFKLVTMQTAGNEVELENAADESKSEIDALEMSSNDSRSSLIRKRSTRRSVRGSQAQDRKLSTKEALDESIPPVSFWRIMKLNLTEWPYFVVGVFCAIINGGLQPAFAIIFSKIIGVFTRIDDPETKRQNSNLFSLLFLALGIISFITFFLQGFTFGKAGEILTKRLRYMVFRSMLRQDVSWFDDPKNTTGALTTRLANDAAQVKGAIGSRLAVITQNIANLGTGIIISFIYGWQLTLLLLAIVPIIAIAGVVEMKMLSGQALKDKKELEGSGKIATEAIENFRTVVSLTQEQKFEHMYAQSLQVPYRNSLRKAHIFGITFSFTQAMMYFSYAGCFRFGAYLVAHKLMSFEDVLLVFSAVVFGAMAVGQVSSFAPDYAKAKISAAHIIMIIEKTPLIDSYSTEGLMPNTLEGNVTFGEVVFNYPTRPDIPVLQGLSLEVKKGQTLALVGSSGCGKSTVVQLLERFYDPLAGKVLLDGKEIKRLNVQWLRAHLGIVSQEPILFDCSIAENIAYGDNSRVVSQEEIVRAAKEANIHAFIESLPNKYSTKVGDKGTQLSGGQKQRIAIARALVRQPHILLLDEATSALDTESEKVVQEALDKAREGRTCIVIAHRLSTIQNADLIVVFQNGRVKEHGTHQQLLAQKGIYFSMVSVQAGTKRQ

T1 sequence (P35869 11-848): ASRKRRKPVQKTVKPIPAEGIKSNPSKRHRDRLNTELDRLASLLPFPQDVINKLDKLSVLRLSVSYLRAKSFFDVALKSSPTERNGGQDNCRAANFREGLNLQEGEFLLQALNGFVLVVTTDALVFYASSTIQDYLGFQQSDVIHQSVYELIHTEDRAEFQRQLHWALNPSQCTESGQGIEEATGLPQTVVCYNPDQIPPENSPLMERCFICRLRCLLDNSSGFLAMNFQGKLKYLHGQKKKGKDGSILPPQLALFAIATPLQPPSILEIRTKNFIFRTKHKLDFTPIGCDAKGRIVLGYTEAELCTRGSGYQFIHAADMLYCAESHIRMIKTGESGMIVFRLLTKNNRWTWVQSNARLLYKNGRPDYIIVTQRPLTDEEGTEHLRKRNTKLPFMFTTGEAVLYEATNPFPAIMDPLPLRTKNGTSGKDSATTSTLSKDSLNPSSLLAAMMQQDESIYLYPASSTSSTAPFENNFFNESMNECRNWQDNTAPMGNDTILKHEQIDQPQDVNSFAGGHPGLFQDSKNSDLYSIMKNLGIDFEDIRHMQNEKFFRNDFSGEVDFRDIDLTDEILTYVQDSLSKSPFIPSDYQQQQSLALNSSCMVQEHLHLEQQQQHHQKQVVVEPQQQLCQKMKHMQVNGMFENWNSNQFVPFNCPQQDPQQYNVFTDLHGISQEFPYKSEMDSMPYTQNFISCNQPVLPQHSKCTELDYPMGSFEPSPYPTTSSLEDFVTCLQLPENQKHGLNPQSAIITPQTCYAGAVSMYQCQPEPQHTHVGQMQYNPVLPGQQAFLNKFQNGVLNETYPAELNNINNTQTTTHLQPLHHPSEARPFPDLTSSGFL

`O=c1cc(-c2ccc(O)cc2)oc2cc(O)cc(O)c12` [Apigenin] was tested, and the Kd [1] was 4240 nM and the Kd [2] was 1 nM.
